Test results taken from the supplement of paper PMC10307832.

Key:
Assay in all cases: relative viability (nuclei count vs DMSO), 5 days (fraction); higher = more cells survive
UMC-11 = system: UMC-11
Method in brief: (§1)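 Relative viability was taken as the ratio of nuclei in treated wells to nuclei in vehicle wells. Lung cancer cell lines in 1536-well plates received compounds by pin tool one day after seeding, either one drug alone or a fixed anchor-drug dose plus five library-drug doses (not always all listed) in √10 steps. Nuclei were counted on 4× images after 5 days of treatment, and values are medians of duplicate plates.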

NCI-H2405 = system: NCI-H2405
Method in brief: as §1

LCLC-97TM1 = system: LCLC-97TM1
Method in brief: as §1

NCI-H1563 = system: NCI-H1563
Method in brief: as §1

NCI-H1395 = system: NCI-H1395
Method in brief: as §1

EMC-BAC-2 = system: EMC-BAC-2
Method in brief: as §1

NCI-H1651 = system: NCI-H1651
Method in brief: as §1

LCLC-103H = system: LCLC-103H
Method in brief: as §1

NCI-H2085 = system: NCI-H2085
Method in brief: as §1

H3255 = system: H3255
Method in brief: as §1

NCI-H1793 = system: NCI-H1793
Method in brief: as §1

NCI-H2087 = system: NCI-H2087
Method in brief: as §1

NCI-H1355 = system: NCI-H1355
Method in brief: as §1

HCC-827 = system: HCC-827
Method in brief: as §1

NCI-H1944 = system: NCI-H1944
Method in brief: as §1

NCI-H520 = system: NCI-H520
Method in brief: as §1

NCI-H322M = system: NCI-H322M
Method in brief: as §1

EPLC-272H = system: EPLC-272H
Method in brief: as §1

NCI-H650 = system: NCI-H650
Method in brief: as §1

ChaGo-K-1 = system: ChaGo-K-1
Method in brief: as §1

SK-MES-1 = system: SK-MES-1
Method in brief: as §1

NCI-H2023 = system: NCI-H2023
Method in brief: as §1

HCC-44 = system: HCC-44
Method in brief: as §1

For `O=C(O)c1ccc(-c2c[nH]c3ncc(-c4ccccc4)cc23)cc1C1CCCC1` + N=C(N)NC(=N)NCCc1ccccc1 [Phenformin] (partner 250 µM), the relative viability (UMC-11; first compound 0.04 µM) was 0.331, the relative viability (UMC-11; first compound 0.1265 µM) was 0.324 and the relative viability (UMC-11; first compound 0.4 µM) was 0.306. For the same compound, the relative viability (UMC-11; first compound 1.265 µM) was 0.265, the relative viability (NCI-H2405; first compound 0.04 µM) was 0.445 and the relative viability (NCI-H2405; first compound 0.1265 µM) was 0.442. For the same compound, the relative viability (NCI-H2405; first compound 0.4 µM) was 0.382, the relative viability (NCI-H2405; first compound 1.265 µM) was 0.383 and the relative viability (LCLC-97TM1; first compound 0.04 µM) was 0.475. It also gave a relative viability (LCLC-97TM1; first compound 0.1265 µM) of 0.435, a relative viability (LCLC-97TM1; first compound 0.4 µM) of 0.5 and a relative viability (LCLC-97TM1; first compound 1.265 µM) of 0.399. The relative viability (NCI-H1563; first compound 0.04 µM) was 0.679, the relative viability (NCI-H1563; first compound 0.1265 µM) was 0.679 and the relative viability (NCI-H1563; first compound 0.4 µM) was 0.634. It also gave a relative viability (NCI-H1563; first compound 1.265 µM) of 0.654, a relative viability (NCI-H1395; first compound 0.04 µM) of 0.452 and a relative viability (NCI-H1395; first compound 0.1265 µM) of 0.44. It also gave a relative viability (NCI-H1395; first compound 0.4 µM) of 0.413, a relative viability (NCI-H1395; first compound 1.265 µM) of 0.414 and a relative viability (EMC-BAC-2; first compound 0.04 µM) of 0.513. For the same compound, the relative viability (EMC-BAC-2; first compound 0.1265 µM) was 0.554, the relative viability (EMC-BAC-2; first compound 0.4 µM) was 0.527 and the relative viability (EMC-BAC-2; first compound 1.265 µM) was 0.424. For the same compound, the relative viability (NCI-H1651; first compound 0.04 µM) was 0.349, the relative viability (NCI-H1651; first compound 0.1265 µM) was 0.328 and the relative viability (NCI-H1651; first compound 0.4 µM) was 0.278. For the same compound, the relative viability (NCI-H1651; first compound 1.265 µM) was 0.189, the relative viability (LCLC-103H; first compound 0.04 µM) was 0.369 and the relative viability (LCLC-103H; first compound 0.1265 µM) was 0.34. For the same compound, the relative viability (LCLC-103H; first compound 0.4 µM) was 0.389, the relative viability (LCLC-103H; first compound 1.265 µM) was 0.371 and the relative viability (NCI-H2085; first compound 0.04 µM) was 0.84. For the same compound, the relative viability (NCI-H2085; first compound 0.1265 µM) was 0.897, the relative viability (NCI-H2085; first compound 0.4 µM) was 0.688 and the relative viability (NCI-H2085; first compound 1.265 µM) was 0.595. The relative viability (H3255; first compound 0.04 µM) was 0.343, the relative viability (H3255; first compound 0.1265 µM) was 0.354 and the relative viability (H3255; first compound 0.4 µM) was 0.39. For the same compound, the relative viability (H3255; first compound 1.265 µM) was 0.372, the relative viability (NCI-H1793; first compound 0.04 µM) was 0.404 and the relative viability (NCI-H1793; first compound 0.1265 µM) was 0.494. It also gave a relative viability (NCI-H1793; first compound 0.4 µM) of 0.374, a relative viability (NCI-H1793; first compound 1.265 µM) of 0.365 and a relative viability (NCI-H2087; first compound 0.04 µM) of 0.472. It also gave a relative viability (NCI-H2087; first compound 0.1265 µM) of 0.461, a relative viability (NCI-H2087; first compound 0.4 µM) of 0.397 and a relative viability (NCI-H2087; first compound 1.265 µM) of 0.393. It also gave a relative viability (NCI-H1355; first compound 0.04 µM) of 0.446, a relative viability (NCI-H1355; first compound 0.1265 µM) of 0.462 and a relative viability (NCI-H1355; first compound 0.4 µM) of 0.453. The relative viability (NCI-H1355; first compound 1.265 µM) was 0.276, the relative viability (HCC-827; first compound 0.04 µM) was 0.406 and the relative viability (HCC-827; first compound 0.1265 µM) was 0.397. The relative viability (HCC-827; first compound 0.4 µM) was 0.43, the relative viability (HCC-827; first compound 1.265 µM) was 0.386 and the relative viability (NCI-H1944; first compound 0.04 µM) was 0.191. The relative viability (NCI-H1944; first compound 0.1265 µM) was 0.214, the relative viability (NCI-H1944; first compound 0.4 µM) was 0.194 and the relative viability (NCI-H1944; first compound 1.265 µM) was 0.172. It also gave a relative viability (NCI-H520; first compound 0.04 µM) of 0.583, a relative viability (NCI-H520; first compound 0.1265 µM) of 0.82 and a relative viability (NCI-H520; first compound 0.4 µM) of 0.585. It also gave a relative viability (NCI-H520; first compound 1.265 µM) of 0.594, a relative viability (NCI-H322M; first compound 0.04 µM) of 0.772 and a relative viability (NCI-H322M; first compound 0.1265 µM) of 0.832. The relative viability (NCI-H322M; first compound 0.4 µM) was 0.782, the relative viability (NCI-H322M; first compound 1.265 µM) was 0.63 and the relative viability (EPLC-272H; first compound 0.04 µM) was 0.357. The relative viability (EPLC-272H; first compound 0.1265 µM) was 0.295, the relative viability (EPLC-272H; first compound 0.4 µM) was 0.356 and the relative viability (EPLC-272H; first compound 1.265 µM) was 0.328. It also gave a relative viability (NCI-H650; first compound 0.04 µM) of 0.42, a relative viability (NCI-H650; first compound 0.1265 µM) of 0.494 and a relative viability (NCI-H650; first compound 0.4 µM) of 0.448. For the same compound, the relative viability (NCI-H650; first compound 1.265 µM) was 0.399, the relative viability (ChaGo-K-1; first compound 0.04 µM) was 0.477 and the relative viability (ChaGo-K-1; first compound 0.1265 µM) was 0.541. The relative viability (ChaGo-K-1; first compound 0.4 µM) was 0.452, the relative viability (ChaGo-K-1; first compound 1.265 µM) was 0.507 and the relative viability (SK-MES-1; first compound 0.04 µM) was 0.683. For the same compound, the relative viability (SK-MES-1; first compound 0.1265 µM) was 0.687, the relative viability (SK-MES-1; first compound 0.4 µM) was 0.637 and the relative viability (SK-MES-1; first compound 1.265 µM) was 0.447. For the same compound, the relative viability (NCI-H2023; first compound 0.04 µM) was 0.412, the relative viability (NCI-H2023; first compound 0.1265 µM) was 0.491 and the relative viability (NCI-H2023; first compound 0.4 µM) was 0.44. For the same compound, the relative viability (NCI-H2023; first compound 1.265 µM) was 0.278, the relative viability (HCC-44; first compound 0.04 µM) was 0.198 and the relative viability (HCC-44; first compound 0.1265 µM) was 0.295. The relative viability (HCC-44; first compound 0.4 µM) was 0.224 and the relative viability (HCC-44; first compound 1.265 µM) was 0.141.
